These results are taken from paper doi:10.1101/208439v1 (biorxiv, 2017).

Targets include SUV39H2 (Homo sapiens, UniProt Q9H5I1); DNMT3a (Homo sapiens, UniProt Q9Y6K1); DNMT3b/3L (Homo sapiens, UniProt Q9UBC3); PRMT3 (Homo sapiens, UniProt O60678).
Holding throughout (assay): biochemical
The next experiment concerns the target SET1b Complex (Homo sapiens, UniProt Q9UPS6). The arrangement: gene SETD1B.
A further experiment deals with T1, SET7/9 (Homo sapiens, UniProt Q8WTS6).
T1 construct: gene SETD7
T1 sequence (Q8WTS6 1-366): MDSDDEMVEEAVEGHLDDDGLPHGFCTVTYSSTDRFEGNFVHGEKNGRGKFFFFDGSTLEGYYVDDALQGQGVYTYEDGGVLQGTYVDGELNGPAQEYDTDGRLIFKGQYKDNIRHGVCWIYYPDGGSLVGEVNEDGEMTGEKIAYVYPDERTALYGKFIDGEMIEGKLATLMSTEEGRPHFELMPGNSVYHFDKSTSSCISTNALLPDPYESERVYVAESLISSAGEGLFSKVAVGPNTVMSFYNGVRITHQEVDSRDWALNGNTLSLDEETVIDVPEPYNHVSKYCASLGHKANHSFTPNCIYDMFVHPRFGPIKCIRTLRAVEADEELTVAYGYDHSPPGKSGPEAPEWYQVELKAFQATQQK

The next experiment addresses T2, SMYD1 (Homo sapiens, UniProt Q8NB12).
T2 sequence (Q8NB12 1-490): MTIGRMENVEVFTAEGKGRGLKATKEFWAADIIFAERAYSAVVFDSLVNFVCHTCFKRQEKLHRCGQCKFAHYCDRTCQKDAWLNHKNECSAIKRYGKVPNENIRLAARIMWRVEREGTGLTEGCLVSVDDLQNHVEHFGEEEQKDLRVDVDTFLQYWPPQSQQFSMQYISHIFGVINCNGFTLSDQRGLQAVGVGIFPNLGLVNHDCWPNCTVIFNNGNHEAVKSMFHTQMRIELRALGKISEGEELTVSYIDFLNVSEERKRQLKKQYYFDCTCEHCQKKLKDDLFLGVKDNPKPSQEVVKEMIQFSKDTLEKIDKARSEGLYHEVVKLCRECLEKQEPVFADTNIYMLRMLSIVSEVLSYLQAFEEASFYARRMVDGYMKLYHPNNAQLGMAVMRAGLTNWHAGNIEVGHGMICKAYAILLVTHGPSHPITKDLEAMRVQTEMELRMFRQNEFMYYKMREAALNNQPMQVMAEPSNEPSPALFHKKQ

The target in a further experiment is T3, SETD2 (Homo sapiens, UniProt Q9BYW2).
T3 sequence (Q9BYW2 1434-1711): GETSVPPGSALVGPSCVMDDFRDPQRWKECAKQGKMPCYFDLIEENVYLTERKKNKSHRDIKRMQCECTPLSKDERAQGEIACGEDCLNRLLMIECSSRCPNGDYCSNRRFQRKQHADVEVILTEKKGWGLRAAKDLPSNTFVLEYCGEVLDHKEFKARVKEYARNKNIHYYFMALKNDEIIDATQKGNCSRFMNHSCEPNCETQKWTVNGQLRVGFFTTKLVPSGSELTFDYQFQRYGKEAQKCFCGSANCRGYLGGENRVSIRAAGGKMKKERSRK

The target of another experiment is T4, GLP (Homo sapiens, UniProt Q9H9B1).
T4 construct: gene EHMT1
T4 sequence (Q9H9B1 1-1298): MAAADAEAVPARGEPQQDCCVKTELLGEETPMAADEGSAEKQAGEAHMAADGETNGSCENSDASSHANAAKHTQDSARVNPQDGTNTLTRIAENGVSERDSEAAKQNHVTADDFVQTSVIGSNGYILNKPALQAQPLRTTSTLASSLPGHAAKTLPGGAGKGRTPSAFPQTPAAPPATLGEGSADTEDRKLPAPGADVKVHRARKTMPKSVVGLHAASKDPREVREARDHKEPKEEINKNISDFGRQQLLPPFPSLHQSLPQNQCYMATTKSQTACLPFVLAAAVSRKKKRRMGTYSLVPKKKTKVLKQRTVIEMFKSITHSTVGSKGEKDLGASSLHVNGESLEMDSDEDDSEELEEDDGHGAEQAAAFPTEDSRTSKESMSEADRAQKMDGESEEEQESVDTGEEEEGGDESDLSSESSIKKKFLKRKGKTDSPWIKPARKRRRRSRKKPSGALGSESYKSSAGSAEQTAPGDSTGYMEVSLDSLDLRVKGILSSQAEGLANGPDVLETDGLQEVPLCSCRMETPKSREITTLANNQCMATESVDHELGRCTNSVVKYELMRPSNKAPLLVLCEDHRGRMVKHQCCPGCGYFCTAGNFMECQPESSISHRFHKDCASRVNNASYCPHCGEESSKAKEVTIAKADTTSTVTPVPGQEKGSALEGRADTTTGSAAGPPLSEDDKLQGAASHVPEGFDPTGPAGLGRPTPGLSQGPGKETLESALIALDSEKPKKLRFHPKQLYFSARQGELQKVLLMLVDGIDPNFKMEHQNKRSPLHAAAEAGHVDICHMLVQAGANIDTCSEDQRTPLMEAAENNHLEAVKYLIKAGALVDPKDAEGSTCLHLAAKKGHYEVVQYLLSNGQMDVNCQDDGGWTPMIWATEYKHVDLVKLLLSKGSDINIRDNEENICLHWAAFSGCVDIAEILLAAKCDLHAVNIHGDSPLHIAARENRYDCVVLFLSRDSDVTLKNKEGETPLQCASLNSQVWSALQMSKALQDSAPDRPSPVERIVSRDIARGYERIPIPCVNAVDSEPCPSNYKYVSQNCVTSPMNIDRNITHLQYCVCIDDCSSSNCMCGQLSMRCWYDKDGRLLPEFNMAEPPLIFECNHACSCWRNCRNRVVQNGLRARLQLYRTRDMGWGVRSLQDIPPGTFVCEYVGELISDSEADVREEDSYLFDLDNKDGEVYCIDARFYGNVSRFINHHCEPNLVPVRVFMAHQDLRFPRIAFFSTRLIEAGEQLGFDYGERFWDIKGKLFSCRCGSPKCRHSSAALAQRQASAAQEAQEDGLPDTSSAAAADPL

The next experiment concerns the target MLL1 Complex (Homo sapiens, UniProt Q03164). The arrangement: gene KMT2A.
The target in another experiment is MLL2 Complex (Homo sapiens, UniProt O14686). The arrangement: gene KMT2D.
In a further experiment the target is MLL3 Complex (Homo sapiens, UniProt Q8NEZ4). Also on record: gene KMT2C.
The target in a further experiment is MLL4 Complex (Homo sapiens, UniProt Q9UMN6). The arrangement: gene KMT2B.

Sequence of DNMT3a (Q9Y6K1 whole entry, looked up): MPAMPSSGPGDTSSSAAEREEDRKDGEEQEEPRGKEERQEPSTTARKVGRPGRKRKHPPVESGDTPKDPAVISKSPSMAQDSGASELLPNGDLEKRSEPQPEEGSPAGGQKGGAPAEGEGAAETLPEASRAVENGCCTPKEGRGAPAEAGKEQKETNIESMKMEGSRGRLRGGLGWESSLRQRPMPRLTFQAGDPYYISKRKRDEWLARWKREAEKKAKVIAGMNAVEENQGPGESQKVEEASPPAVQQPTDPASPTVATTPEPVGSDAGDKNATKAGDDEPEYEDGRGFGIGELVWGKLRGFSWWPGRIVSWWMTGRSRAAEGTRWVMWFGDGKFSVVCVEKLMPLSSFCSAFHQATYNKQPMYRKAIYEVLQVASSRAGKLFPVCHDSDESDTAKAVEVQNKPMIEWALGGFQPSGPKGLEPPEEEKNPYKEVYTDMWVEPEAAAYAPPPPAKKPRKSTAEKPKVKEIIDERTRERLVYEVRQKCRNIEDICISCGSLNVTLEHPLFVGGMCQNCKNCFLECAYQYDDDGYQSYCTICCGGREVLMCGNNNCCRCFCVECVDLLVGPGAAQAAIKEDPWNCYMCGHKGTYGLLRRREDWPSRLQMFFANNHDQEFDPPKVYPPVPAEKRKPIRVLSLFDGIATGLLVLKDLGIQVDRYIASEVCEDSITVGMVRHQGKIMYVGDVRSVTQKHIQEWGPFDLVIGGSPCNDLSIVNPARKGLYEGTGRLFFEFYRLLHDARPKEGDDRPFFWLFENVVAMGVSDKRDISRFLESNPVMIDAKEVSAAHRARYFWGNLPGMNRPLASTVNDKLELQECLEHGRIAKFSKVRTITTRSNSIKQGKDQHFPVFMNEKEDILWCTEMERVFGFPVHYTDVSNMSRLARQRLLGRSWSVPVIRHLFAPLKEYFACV
Sequence of SET1b Complex (Q9UPS6 whole entry, looked up, one chain of several): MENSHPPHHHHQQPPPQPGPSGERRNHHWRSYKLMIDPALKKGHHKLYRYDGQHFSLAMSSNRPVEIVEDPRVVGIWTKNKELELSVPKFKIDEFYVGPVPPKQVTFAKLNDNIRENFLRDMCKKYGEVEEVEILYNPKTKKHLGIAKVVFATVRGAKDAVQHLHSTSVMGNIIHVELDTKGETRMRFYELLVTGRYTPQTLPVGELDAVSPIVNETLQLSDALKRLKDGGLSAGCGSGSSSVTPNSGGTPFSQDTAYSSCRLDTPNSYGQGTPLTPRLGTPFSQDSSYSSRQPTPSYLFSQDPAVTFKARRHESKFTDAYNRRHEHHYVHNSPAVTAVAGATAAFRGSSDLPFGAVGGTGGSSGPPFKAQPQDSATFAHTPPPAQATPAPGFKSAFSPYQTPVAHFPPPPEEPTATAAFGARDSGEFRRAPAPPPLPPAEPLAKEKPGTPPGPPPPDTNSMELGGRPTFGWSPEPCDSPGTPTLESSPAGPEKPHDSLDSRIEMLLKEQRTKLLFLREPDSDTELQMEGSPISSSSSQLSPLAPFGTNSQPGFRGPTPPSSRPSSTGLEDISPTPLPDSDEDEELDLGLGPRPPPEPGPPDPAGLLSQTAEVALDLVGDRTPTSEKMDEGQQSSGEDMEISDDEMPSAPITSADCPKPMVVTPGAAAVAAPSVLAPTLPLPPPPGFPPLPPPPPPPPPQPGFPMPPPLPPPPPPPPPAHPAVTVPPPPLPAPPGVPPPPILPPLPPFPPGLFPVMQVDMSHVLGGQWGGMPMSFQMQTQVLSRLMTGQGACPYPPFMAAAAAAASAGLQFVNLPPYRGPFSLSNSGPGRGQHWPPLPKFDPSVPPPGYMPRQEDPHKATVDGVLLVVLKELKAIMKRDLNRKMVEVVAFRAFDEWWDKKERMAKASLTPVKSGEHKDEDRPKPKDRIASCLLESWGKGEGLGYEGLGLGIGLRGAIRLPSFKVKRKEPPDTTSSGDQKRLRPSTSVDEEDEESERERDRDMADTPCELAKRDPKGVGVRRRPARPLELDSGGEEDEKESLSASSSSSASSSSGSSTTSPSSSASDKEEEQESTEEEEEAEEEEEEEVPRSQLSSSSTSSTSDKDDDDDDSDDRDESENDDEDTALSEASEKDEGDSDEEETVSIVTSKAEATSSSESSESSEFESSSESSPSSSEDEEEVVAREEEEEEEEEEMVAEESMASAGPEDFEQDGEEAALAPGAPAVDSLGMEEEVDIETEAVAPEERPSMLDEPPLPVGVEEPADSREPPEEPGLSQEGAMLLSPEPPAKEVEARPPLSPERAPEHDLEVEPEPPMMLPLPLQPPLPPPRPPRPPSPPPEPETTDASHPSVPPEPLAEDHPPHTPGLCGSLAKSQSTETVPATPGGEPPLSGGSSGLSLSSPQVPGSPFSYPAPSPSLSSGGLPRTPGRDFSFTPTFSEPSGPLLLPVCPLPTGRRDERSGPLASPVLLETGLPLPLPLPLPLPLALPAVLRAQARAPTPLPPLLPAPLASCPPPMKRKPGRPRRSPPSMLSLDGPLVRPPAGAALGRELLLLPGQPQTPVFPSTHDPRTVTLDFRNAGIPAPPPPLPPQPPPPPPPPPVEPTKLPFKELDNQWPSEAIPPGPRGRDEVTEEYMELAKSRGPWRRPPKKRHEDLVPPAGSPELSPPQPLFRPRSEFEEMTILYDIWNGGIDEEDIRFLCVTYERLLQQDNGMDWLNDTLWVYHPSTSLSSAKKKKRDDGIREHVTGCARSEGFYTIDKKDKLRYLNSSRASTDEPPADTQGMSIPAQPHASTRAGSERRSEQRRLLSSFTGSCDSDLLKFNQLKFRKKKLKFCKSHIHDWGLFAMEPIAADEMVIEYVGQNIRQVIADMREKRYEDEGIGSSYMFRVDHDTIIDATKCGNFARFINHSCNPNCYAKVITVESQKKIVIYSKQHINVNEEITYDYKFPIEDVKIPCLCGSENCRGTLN
Sequence of SUV39H2 (Q9H5I1 48-410): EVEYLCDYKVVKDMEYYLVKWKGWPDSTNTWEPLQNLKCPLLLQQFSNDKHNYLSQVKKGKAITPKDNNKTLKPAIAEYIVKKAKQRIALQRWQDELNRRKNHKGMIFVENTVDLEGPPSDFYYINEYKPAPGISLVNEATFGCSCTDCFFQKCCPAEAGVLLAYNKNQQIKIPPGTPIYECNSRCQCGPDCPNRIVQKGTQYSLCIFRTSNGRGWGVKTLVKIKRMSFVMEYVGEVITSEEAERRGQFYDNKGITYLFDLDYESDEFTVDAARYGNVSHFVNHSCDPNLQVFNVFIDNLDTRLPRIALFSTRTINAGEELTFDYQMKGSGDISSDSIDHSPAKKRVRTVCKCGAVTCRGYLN
Sequence of PRMT3 (O60678 2-531): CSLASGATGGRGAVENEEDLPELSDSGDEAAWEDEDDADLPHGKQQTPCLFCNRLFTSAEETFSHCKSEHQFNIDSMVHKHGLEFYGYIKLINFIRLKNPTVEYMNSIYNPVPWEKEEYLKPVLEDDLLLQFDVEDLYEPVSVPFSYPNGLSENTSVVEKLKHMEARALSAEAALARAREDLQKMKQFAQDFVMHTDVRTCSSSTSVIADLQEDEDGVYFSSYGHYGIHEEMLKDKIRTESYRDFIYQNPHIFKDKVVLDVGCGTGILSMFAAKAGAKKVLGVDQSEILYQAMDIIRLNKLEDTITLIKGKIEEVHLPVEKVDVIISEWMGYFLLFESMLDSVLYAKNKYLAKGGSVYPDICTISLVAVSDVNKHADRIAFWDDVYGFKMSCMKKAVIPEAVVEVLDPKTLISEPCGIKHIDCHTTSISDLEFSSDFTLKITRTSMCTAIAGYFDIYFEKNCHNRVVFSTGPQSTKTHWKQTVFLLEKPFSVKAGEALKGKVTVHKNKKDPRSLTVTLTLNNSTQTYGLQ

Broadly, the IC50 is the concentration needed to halve the response being measured. On to `Nc1ncnc2c1ncn2[C@@H]1O[C@H](CSCC[C@H](N)C(=O)O)[C@@H](O)[C@H]1O` [SAH], for which the half-maximal inhibitory concentration (IC50) against SUV39H2 was 55 µM; on SET1b Complex, 1.5 µM; against SET7/9, 83 µM; against DNMT3a, 0.12 µM; at SMYD1, 37 µM; against SETD2 it was 5.2 µM. The IC50 came to 0.53 µM against GLP; 0.55 µM at MLL1 Complex; 0.012 µM on DNMT3b/3L; 27 µM on MLL2 Complex; 2.3 µM against PRMT3; 57 µM at MLL3 Complex. Also, the IC50 against MLL4 Complex came to 2.5 µM.
